Where “and” joins values, the source holds several entries; their conditions need not be identical. Identical values can stand only once. Like-named read-outs stand apart in the source and are kept apart here.
Target: T1, M2R (Homo sapiens, UniProt P08172)
T1 sequence (P08172 1-466): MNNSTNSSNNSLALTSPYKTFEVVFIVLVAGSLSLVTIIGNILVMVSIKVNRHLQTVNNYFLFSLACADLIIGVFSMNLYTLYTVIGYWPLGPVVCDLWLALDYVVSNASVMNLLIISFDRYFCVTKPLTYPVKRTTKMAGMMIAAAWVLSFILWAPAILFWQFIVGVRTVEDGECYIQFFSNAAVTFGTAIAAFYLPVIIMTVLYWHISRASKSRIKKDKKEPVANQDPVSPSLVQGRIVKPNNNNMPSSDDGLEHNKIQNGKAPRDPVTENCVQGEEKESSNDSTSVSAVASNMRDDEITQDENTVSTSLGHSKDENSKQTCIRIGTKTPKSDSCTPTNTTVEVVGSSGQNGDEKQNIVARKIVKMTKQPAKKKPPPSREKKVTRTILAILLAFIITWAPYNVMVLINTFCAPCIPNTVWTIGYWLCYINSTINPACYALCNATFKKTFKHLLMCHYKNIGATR
Test: cell-based
Set-up: expressed in transfected cells; host or cells: HEK 293T
Conditions: for Emax: HEK-293T
Protocol: Determination of β-arrestin-2 recruitment was performed applying the PathHunter assay (DiscoverX, Birmingham, U.K.) which is based on fragment complementation of β-galactosidase as described. In detail, HEK293T cells were transfected with the flag-tagged M2 receptor carrying the PKA fragment for enzyme complementation and transferred into 384-well micro plates. […] Determination of chemoluminescence was done with a Clariostar plate reader (BMG, Ortenberg, Germany). […] Normalized curves from three to five individual experiments each done in duplicate were analyzed by non-linear regression applying the algorithms in Prism 8.0 (GraphPad, San Diego, CA) to get dose-response curves representing average EC50 and Emax value.

Molecule C[N+](C)(C)CC#CCOC1=NOCC1 [Ixo, iperoxo] has an EC50 of 0.35 ± 0.08 nM, an Emax (read-out: Emax in % of acetylcholin, arrestin recruitment by iperoxo, agonist + 0.1 µM LY) of 168% and an Emax (read-out: Emax in % of acetylcholin, arrestin recruitment by iperoxo, agonist + 3 µM LY) of 172%. It also gave an Emax (read-out: Emax in % of acetylcholin, arrestin recruitment by iperoxo, agonist + 30 µM LY) of 170%, an Emax (read-out: Emax in % of acetylcholin, arrestin recruitment by iperoxo, agonist + 100 µM LY) of 170% and an Emax (read-out: arrestin recruitment as % max effect of acetylcholin, iperoxo log [M] 3-6) of 135%. The Emax (read-out: arrestin recruitment as % max effect of acetylcholin, iperoxo log [M] 3-7) was 142%, the Emax (read-out: arrestin recruitment as % max effect of acetylcholin, iperoxo log [M] 3-8) was 138% and the Emax (read-out: arrestin recruitment as % max effect of acetylcholin, iperoxo log [M] 3-8 + 1µM LY2119620) was 150%. It also gave an Emax (read-out: arrestin recruitment as % max effect of acetylcholin, iperoxo log [M] 3-8 + 10µM LY2119620) of 154%, an Emax (read-out: arrestin recruitment as % max effect of acetylcholin, iperoxo log [M] 3-8 + 30µM LY2119620) of 168% and an Emax (read-out: arrestin recruitment as % max effect of acetylcholin, iperoxo log [M] 3-8 + 100µM LY2119620) of 160%. It also gave an Emax (read-out: arrestin recruitment as % max effect of acetylcholin, iperoxo log [M] 3-9 + 0.1µM LY2119620) of 160%, an Emax (read-out: arrestin recruitment as % max effect of acetylcholin, iperoxo log [M] 3-9 + 3µM LY2119620) of 166% and an Emax (read-out: arrestin recruitment as % max effect of acetylcholin, iperoxo log [M] 3-9 + 30µM LY2119620) of 175%. It also gave an Emax (read-out: arrestin recruitment as % max effect of acetylcholin, iperoxo log [M] 3-9 + 100µM LY2119620) of 159%, an Emax (read-out: arrestin recruitment as % max effect of acetylcholin, iperoxo log [M] 3-10 + 30µM LY2119620) of 141% and an Emax (read-out: arrestin recruitment as % max effect of acetylcholin, iperoxo log [M] 3-10 + 100µM LY2119620) of 125%. The Emax (read-out: arrestin recruitment as % max effect of acetylcholin, iperoxo log [M] 3-11 + 0.1µM LY2119620) was 19.4%, the Emax (read-out: arrestin recruitment as % max effect of acetylcholin, iperoxo log [M] 3-11 + 1µM LY2119620) was 30.8% and the Emax (read-out: arrestin recruitment as % max effect of acetylcholin, iperoxo log [M] 3-11 + 3µM LY2119620) was 72.1%. It also gave an Emax (read-out: arrestin recruitment as % max effect of acetylcholin, iperoxo log [M] 3-11 + 10µM LY2119620) of 77.5%, an Emax (read-out: arrestin recruitment as % max effect of acetylcholin, iperoxo log [M] 3-11 + 100µM LY2119620) of 58.2% and an Emax (read-out: arrestin recruitment as % max effect of acetylcholin, iperoxo log [M] -5) of 152%. For the same molecule, the Emax (read-out: arrestin recruitment as % max effect of acetylcholin, iperoxo log [M] -6 + 0.1µM LY2119620) was 163%, the Emax (read-out: arrestin recruitment as % max effect of acetylcholin, iperoxo log [M] -6 + 1µM LY2119620) was 142% and the Emax (read-out: arrestin recruitment as % max effect of acetylcholin, iperoxo log [M] -6 + 3µM LY2119620) was 170%. For the same molecule, the Emax (read-out: arrestin recruitment as % max effect of acetylcholin, iperoxo log [M] -6 + 10µM LY2119620) was 155%, the Emax (read-out: arrestin recruitment as % max effect of acetylcholin, iperoxo log [M] -6 + 30µM LY2119620) was 180% and the Emax (read-out: arrestin recruitment as % max effect of acetylcholin, iperoxo log [M] -6 + 100µM LY2119620) was 166%. The Emax (read-out: arrestin recruitment as % max effect of acetylcholin, iperoxo log [M] -7 + 30µM LY2119620) was 168%, the Emax (read-out: arrestin recruitment as % max effect of acetylcholin, iperoxo log [M] -7 + 100µM LY2119620) was 161% and the Emax (read-out: arrestin recruitment as % max effect of acetylcholin, iperoxo log [M] -8 + 0.1µM LY2119620) was 162%. It also gave an Emax (read-out: arrestin recruitment as % max effect of acetylcholin, iperoxo log [M] -8 + 3µM LY2119620) of 149%, an Emax (read-out: arrestin recruitment as % max effect of acetylcholin, iperoxo log [M] -8 + 30µM LY2119620) of 176% and an Emax (read-out: arrestin recruitment as % max effect of acetylcholin, iperoxo log [M] -8 + 100µM LY2119620) of 160%. It also gave an Emax (read-out: arrestin recruitment as % max effect of acetylcholin, iperoxo log [M] -10 + 3µM LY2119620) of 105%, an Emax (read-out: arrestin recruitment as % max effect of acetylcholin, iperoxo log [M] -10 + 100µM LY2119620) of 89% and an Emax (read-out: arrestin recruitment as % max effect of acetylcholin, iperoxo log [M] -11 + 3µM LY2119620) of 44.6%. The Emax (read-out: arrestin recruitment as % max effect of acetylcholin, iperoxo log [M] -11 + 30µM LY2119620) was 75.7%, the Emax (read-out: arrestin recruitment as % max effect of acetylcholin, iperoxo log [M] -11 + 100µM LY2119620) was 58.6% and the Emax (read-out: arrestin recruitment as % max effect of acetylcholin, iperoxo log [M] -12 + 3µM LY2119620) was 37.8%. For the same molecule, the Emax (read-out: arrestin recruitment as % max effect of acetylcholin, iperoxo log [M] -12 + 100µM LY2119620) was 62.6%, the Emax (read-out: arrestin recruitment as % max effect of acetylcholin, iperoxo log [M] -13 + 3µM LY2119620) was 33% and the Emax (read-out: arrestin recruitment as % max effect of acetylcholin, iperoxo log [M] -13 + 10µM LY2119620) was 26.7%. The Emax (read-out: arrestin recruitment as % max effect of acetylcholin, iperoxo log [M] -13 + 30µM LY2119620) was 59.3%, the Emax (read-out: arrestin recruitment as % max effect of acetylcholin, iperoxo log [M] -13 + 100µM LY2119620) was 44.2% and the Emax (read-out: enhancement of efficacy (Emax) in β-arrestin recruitment, presence of high concentration of LY2119620) was about 15%. For the same molecule, the “arrestin recruitment as % max effect of acetylcholin” value (from here on “arrestin recruitment as % max effect”) (iperoxo log [M] 3-9) was 135.8% and 120.8% and 147.9% and 130.1%, the “arrestin recruitment as % max effect” value (iperoxo log [M] 3-9 + 0.1µM LY2119620) was 156.9% and the “arrestin recruitment as % max effect” value (iperoxo log [M] 3-9 + 1µM LY2119620) was 109.3% and 162.2% and 161.4% and 201.0%. For the same molecule, the “arrestin recruitment as % max effect” value (iperoxo log [M] 3-9 + 10µM LY2119620) was 130.3% and 161.0% and 169.5%, the “arrestin recruitment as % max effect” value (iperoxo log [M] 3-9 + 30µM LY2119620) was 168.8% and 163.9% and the “arrestin recruitment as % max effect” value (iperoxo log [M] 3-10 + 0.1µM LY2119620) was 82.7% and 92.1% and 124.5%. The “arrestin recruitment as % max effect” value (iperoxo log [M] 3-10 + 3µM LY2119620) was 147.1% and 158.1% and 137.1% and 138.5%, the “arrestin recruitment as % max effect” value (iperoxo log [M] 3-10 + 10µM LY2119620) was 103.3% and 152.4% and 152.5% and 133.9% and the “arrestin recruitment as % max effect” value (iperoxo log [M] 3-10 + 30µM LY2119620) was 133.2% and 130.6% and 122.9%. The “arrestin recruitment as % max effect” value (iperoxo log [M] 3-10 + 100µM LY2119620) was 127.5% and 129.1% and 112.5%, the “arrestin recruitment as % max effect” value (iperoxo log [M] -7 + 0.1µM LY2119620) was 171.1% and 186.3% and 156.7% and 161.0% and the “arrestin recruitment as % max effect” value (iperoxo log [M] -7 + 1µM LY2119620) was 129.3% and 176.9% and 172.6%. For the same molecule, the “arrestin recruitment as % max effect” value (iperoxo log [M] -7 + 3µM LY2119620) was 210.7% and 168.6% and 182.6% and 172.8%, the “arrestin recruitment as % max effect” value (iperoxo log [M] -7 + 10µM LY2119620) was 131.2% and 159.6% and 162.7% and 198.6% and the “arrestin recruitment as % max effect” value (iperoxo log [M] -7 + 30µM LY2119620) was 161.3% and 181.0% and 168.2%. For the same molecule, the “arrestin recruitment as % max effect” value (iperoxo log [M] -7 + 100µM LY2119620) was 157.1% and 172.7% and 165.6%, the “arrestin recruitment as % max effect” value (iperoxo log [M] -8 + 0.1µM LY2119620) was 168.3% and 154.3% and 173.5% and the “arrestin recruitment as % max effect” value (iperoxo log [M] -8 + 1µM LY2119620) was 124.1% and 172.3% and 160.8% and 152.0%. The “arrestin recruitment as % max effect” value (iperoxo log [M] -8 + 3µM LY2119620) was 158.0% and 166.2% and 162.4%, the “arrestin recruitment as % max effect” value (iperoxo log [M] -8 + 10µM LY2119620) was 139.2% and 163.1% and 168.9% and 181.1% and the “arrestin recruitment as % max effect” value (iperoxo log [M] -8 + 30µM LY2119620) was 176.5% and 174.9% and 157.1%. For the same molecule, the “arrestin recruitment as % max effect” value (iperoxo log [M] -8 + 100µM LY2119620) was 165.6% and 153.6% and 149.1%, the “arrestin recruitment as % max effect” value (iperoxo log [M] -9 + 0.1µM LY2119620) was 127.2% and 148.3% and 150.9% and 143.2% and the “arrestin recruitment as % max effect” value (iperoxo log [M] -9 + 3µM LY2119620) was 137.5% and 153.6% and 172.9% and 151.5%. The “arrestin recruitment as % max effect” value (iperoxo log [M] -9 + 10µM LY2119620) was 118.8% and 155.2% and 169.6% and 149.0%, the “arrestin recruitment as % max effect” value (iperoxo log [M] -9 + 30µM LY2119620) was 161.0% and 151.6% and 144.8% and 137.0% and the “arrestin recruitment as % max effect” value (iperoxo log [M] -9 + 100µM LY2119620) was 158.6% and 154.0% and 158.3% and 124.7%. For the same molecule, the “arrestin recruitment as % max effect” value (iperoxo log [M] -10 + 10µM LY2119620) was 79.6% and 137.1%, the “arrestin recruitment as % max effect” value (iperoxo log [M] -10 + 30µM LY2119620) was 112.5% and 108.5% and 109.4% and the “arrestin recruitment as % max effect” value (iperoxo log [M] -10 + 100µM LY2119620) was 85.8% and 82.4% and 75.4%.
